34 compounds from patent US5189058A, “Iminodicarbonic, iminodicarbonodithioic, and thiocarbonylcarbamic acid esters useful as ACAT inhibitors” (Warner-Lambert Company, priority 1991, dated 1993) can be followed below.

Assay [1] can be described thus: in vivo screen designated APCC (blood cholesterol in rats on high fat, high cholesterol diet). As to conditions: Rattus norvegicus, 16 h, male Sprague-Dawley rats, 30 mg/kg in CMC/Tween at 4 PM, PCC diet (0.5% cholic acid) overnight, sacrificed 8 AM, read-out: % Change (mg/dl). Here is the method: In one in vivo screen designated APCC, male Sprague-Dawley rats (200 to 225 g) were randomly divided into treatment groups and dosed at 4 PM with either vehicle (CMC/Tween) or suspensions of compounds in vehicle at a dose of 30 mg/kg. The normal chow diet was then replaced with a high fat, high cholesterol diet (designated PCC) containing 0.5% cholic acid. The rats consumed this diet ad libitum during the night and were sacrificed at 8 AM to obtain blood samples for cholesterol analysis using standard procedures. Statistical differences between mean cholesterol values for the same vehicle were determined using analysis of variance followed by Fisher's least significant test.

The target in assay [2] is T1, acyl-CoA: cholesterol acyltransferase (ACAT) (Oryctolagus cuniculus, UniProt G1SFD9).
T1 sequence (G1SFD9 1-524): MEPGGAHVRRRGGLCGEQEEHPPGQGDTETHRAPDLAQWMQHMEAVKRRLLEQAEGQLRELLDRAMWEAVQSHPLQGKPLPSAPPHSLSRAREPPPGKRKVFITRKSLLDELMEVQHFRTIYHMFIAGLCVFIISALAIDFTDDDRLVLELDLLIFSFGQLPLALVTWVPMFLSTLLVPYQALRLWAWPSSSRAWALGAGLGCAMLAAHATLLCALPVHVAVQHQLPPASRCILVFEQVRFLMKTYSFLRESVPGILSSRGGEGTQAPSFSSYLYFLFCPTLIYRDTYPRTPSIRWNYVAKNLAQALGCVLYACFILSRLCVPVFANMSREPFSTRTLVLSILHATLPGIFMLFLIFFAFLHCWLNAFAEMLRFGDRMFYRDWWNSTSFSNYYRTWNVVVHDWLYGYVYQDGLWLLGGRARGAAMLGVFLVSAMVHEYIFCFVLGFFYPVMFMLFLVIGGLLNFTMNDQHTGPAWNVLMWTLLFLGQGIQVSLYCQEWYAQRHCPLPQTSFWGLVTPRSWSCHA
Nature of the assay: in vitro ACAT inhibition (radiolabeled cholesterol oleate formed from radiolabeled oleic acid, rabbit intestinal microsomes). It is filed as biochemical.
Experimental: The ability of representative compounds of the present invention to inhibit ACAT was measured using an in vitro test more fully described in F. J. Field and R. G. Salone, Biochemica et Biophysica 712:557-570 (1982). The test assesses the ability of a test compound to inhibit the acylation of cholesterol by oleic acid by measuring the amount of radiolabeled cholesterol oleate formed from radiolabeled oleic acid in a tissue preparation containing rabbit intestinal microsomes.

The mark [3] stands for this setting: rabbit intestinal microsomes, acylation of cholesterol by oleic acid, read-out: IC50.

Molecules are shown by their SMILES. Where two headings read alike, the source gives them in different places.

Consider `CCCCCC(C)OC(=O)NC(=O)Oc1c(C(C)C)cccc1C(C)C` (racemic) [Example 9, Iminodicarbonic acid, 2,6-bis(1-methylethyl)phenyl 1-methylhexyl ester, (± )], for which the change in vivo at 30 mg/kg in assay [1] was -60%. Still for that read-out and setting: in the case of `CCCCCCCC(C)OC(=O)NC(=O)Oc1c(C(C)C)cccc1C(C)C` (stereo not drawn) [Example 13] it was -56%. What is called IC50 is the midpoint of a concentration-inhibition curve. For the compound `CC(C)c1cccc(C(C)C)c1OC(=O)NC(=O)Oc1ccccc1` [Example 27, Iminodicarbonic acid, 2,6-bis(1-methylethyl)phenyl phenyl ester], the IC50 in assay [2] (setting [3]) came to 3700 nM. Regarding `CCCCCCOC(=O)NC(=O)Oc1c(C(C)C)cccc1C(C)C` [Example 6, Iminodicarbonic acid, 2,6-bis(1-methylethyl)phenyl hexyl ester], the change in vivo at 30 mg/kg in assay [1] is -38%. In assay [2] (setting [3]), the half-maximal inhibitory concentration (IC50) amounted to 93 nM. Consider `CCCCCCCCC(C)OC(=O)NC(=O)Oc1c(C(C)C)cccc1C(C)C` (stereo not drawn) [Example 14, Iminodicarbonic acid, 2,6-bis(1-methylethyl)phenyl 1-methylnonyl ester], for which, in assay [1], the change in vivo at 30 mg/kg is -54%. As for `CC(C)c1cccc(C(C)C)c1OC(=O)NC(=O)Oc1cccc2ccccc12` [Example 26, Iminodicarbonic acid, [2,6-bis(1-methylethyl)phenyl](1-naphthalenyl) ester], the change in vivo at 30 mg/kg in assay [1] was -11%. The IC50 in assay [2] (setting [3]) worked out at 1200 nM.

On to `O=C(NC(=O)Oc1c(-c2ccccc2)cccc1-c1ccccc1)Oc1c(-c2ccccc2)cccc1-c1ccccc1` [Example 32, Iminodicarbonic acid, di[1,1'[3',1"-terphenyl]-2-yl]ester], for which, in assay [1], the change in vivo at 30 mg/kg was -36%. Also, the IC50 in assay [2] (setting [3]) came to 10400 nM. For `CCCCC[C@H](C)OC(=O)NC(=O)Oc1c(C(C)C)cccc1C(C)C` [Example 7, Iminodicarbonic acid, 2,6-bis(1-methylethyl)phenyl 1-methylhexyl ester (S)], in assay [1], the change in vivo at 30 mg/kg was -25%. Same read-out and setting: the figure for `CCCCC[C@@H](C)OC(=O)NC(=O)Oc1c(C(C)C)cccc1C(C)C` [Example 8, Iminodicarbonic acid, 2,6-bis(1-methylethyl)phenyl 1-methylhexyl ester (R)] is -49%. As for `CCCCCCCCCCCCSC(=O)NC(=O)Oc1c(C(C)C)cccc1C(C)C` [Example 18, [(Dodecylthio)carbonyl] -carbamic acid, 2,6-bis(1-methylethyl)phenyl ester], the change in vivo at 30 mg/kg in assay [1] was -63%. Besides, in assay [2] (setting [3]), the IC50 came to 28 nM. `CCCCC(C)(C)OC(=O)NC(=O)Oc1c(C(C)C)cccc1C(C)C` [Example 5, Iminodicarbonic acid, 2,6-bis(1-methylethyl)phenyl 1,1-dimethylpentyl ester]: the change in vivo at 30 mg/kg in assay [1] is -29%. As for `Cc1cccc(C)c1SC(=O)NC(=O)Sc1c(C)cccc1C` [Example 33, Iminodicarbonodithioic acid, S,S'-bis[2,6-bis(methyl)phenyl]ester], the change in vivo at 30 mg/kg in assay [1] was -33%. The IC50 in assay [2] (setting [3]) stood at 230 nM.

Take `CCCCCCCCCCC(C)OC(=O)NC(=O)Oc1c(C(C)C)cccc1C(C)C` (stereo not drawn) [Example 15, Iminodicarbonic acid, 2,6-bis(1-methylethyl)phenyl 1-methylundecyl ester]: the change in vivo at 30 mg/kg in assay [1] is -66%.

For `O=C(NC(=O)OC(c1ccccc1)c1ccccc1)OC(c1ccccc1)c1ccccc1` [Example 36, Iminodicarbonic acid, di(diphenylmethyl)ester], the IC50 in assay [2] (setting [3]) is above 5000 nM. For `CCCCCCCCCCCCOC(=O)NC(=O)Oc1c(C(C)C)cccc1C(C)C` [Example 2, Iminodicarbonic acid, dodecyl 2,6-bis(1-methylethyl)phenyl ester], the change in vivo at 30 mg/kg in assay [1] is -52%.

As for `CC(C)c1cccc(C(C)C)c1OC(=O)NC(=O)Sc1ccccc1` [Example 28], the change in vivo at 30 mg/kg in assay [1] was -19%. Further, in assay [2] (setting [3]), the IC50 was found to be 1800 nM.

Consider `CCCCCCCCCCCCOC(=O)NC(=O)Oc1c(OC)cc(OC)cc1OC` [Example 29, Iminodicarbonic acid, dodecyl 2,4,6-trimethoxyphenyl ester], for which the IC50 in assay [2] (setting [3]) is above 5000 nM. The same measure, in the same setting: in the case of `CCCCCCCCCCCCOC(=O)NC(=O)Sc1c(C(C)C)cccc1C(C)C` [Example 34, [[[2,6-Bis(1-methylethyl)phenyl]thio]carbonyl]carbamic acid, dodecyl ester] it was above 5000 nM. `CC(C)c1cccc(C(C)C)c1OC(=O)NC(=O)Oc1c(C(C)C)cccc1C(C)C` [Example 24, Iminodicarbonic acid, di[2,6-bis(1-methylethyl)phenyl]ester]: the change in vivo at 30 mg/kg in assay [1] was -43%. For the compound `CCCCCCCCCCCCC(C)OC(=O)NC(=O)Oc1ccc(F)cc1F` (stereo not drawn) [Example 30, Iminodicarbonic acid, 2,4-difluorophenyl 1-methyltridecyl ester], the change in vivo at 30 mg/kg in assay [1] was -15%. For the same compound, the IC50 in assay [2] (setting [3]) is above 5000 nM. As to `CCCCCCCCCCOC(=O)NC(=O)Oc1c(C(C)C)cccc1C(C)C` [Example 17, Iminodicarbonic acid, 2,6-bis(1-methylethyl)phenyl decyl ester], the change in vivo at 30 mg/kg in assay [1] is -43%. On the same count and under the same terms, in the case of `CCCCCCCCCCSC(=O)NC(=O)Oc1c(C(C)C)cccc1C(C)C` [Example 20, [(Decylthio)carbonyl]carbamic acid, 2,6-bis(1-methylethyl)phenyl ester] it was -52%. Same read-out and setting: in the case of `CC(C)c1cccc(C(C)C)c1OC(=O)NC(=O)OC(c1ccccc1)c1ccccc1` [Example 1, Iminodicarbonic acid, 2,6-bis(1-methylethyl)phenyldiphenylmethyl ester] it was -13%; in that of `CC(C)c1cccc(C(C)C)c1OC(=O)NC(=O)Sc1c(C(C)C)cccc1C(C)C` [Example 19, 2,6-Bis[[(1-methylethyl)phenyl]thio]carbamic acid, 2,6-bis(1-methylethyl)phenyl ester], -20%; in that of `COC(=O)C(OC(=O)NC(=O)Oc1c(C(C)C)cccc1C(C)C)c1ccccc1` (stereo not drawn) [Example 25, α-[[[[[2,6-Bis(1-methylethyl)phenoxy]carbonyl]amino]carbonyl]oxy]benzeneacetic acid, methyl ester], -12%. On the same count and under the same terms, in the case of `CCCCCCCCCCCCC(C)OC(=O)NC(=O)Oc1c(C(C)C)cccc1C(C)C` (racemic) [Example 3, Iminodicarbonic acid, 2,6-bis(1-methylethyl)phenyl 1-methyltridecyl ester, (±)] it was -50%; in that of `CCCCCCCCCCCOC(=O)NC(=O)Oc1c(C(C)C)cccc1C(C)C` [Example 11, Iminodicarbonic acid, 2,6-bis(1-methylethyl)phenyl undecyl ester], -65%. Regarding `CCCCCCCCCCCCSC(=O)NC(=O)Sc1c(C(C)C)cccc1C(C)C` [Example 31, Iminodicarbonodithioic acid, 5-[2,6-bis(1-methylethyl)phenyl] S'-dodecyl ester], in assay [1], the change in vivo at 30 mg/kg is -35%. Besides, in assay [2] (setting [3]), the IC50 was above 1000 nM.

Take `CCCCCCCCCCCCC(C)(C)OC(=O)NC(=O)Oc1c(C(C)C)cccc1C(C)C` [Example 4, Iminodicarbonic acid, 2,6-bis(1-methylethyl)phenyl 1,1-dimethyltridecyl ester]: the change in vivo at 30 mg/kg in assay [1] is -51%.

Take `CC(C)(C)c1cccc(C(C)(C)C)c1OC(=O)NC(=O)Oc1c(C(C)(C)C)cccc1C(C)(C)C` [Example 35, Iminodicarbonic acid bis[2,6-bis(1,1-dimethylethyl)phenyl]ester]: the change in vivo at 30 mg/kg in assay [1] was -4%. Turning to `CCCCCCCCCCCCCCCCOC(=O)NC(=O)Oc1c(C(C)C)cccc1C(C)C` [Example 10, Iminodicarbonic acid, 2,6-bis(1-methylethyl)phenyl hexadecyl ester], the change in vivo at 30 mg/kg in assay [1] was -70%. In addition, the IC50 in assay [2] (setting [3]) was found to be 50 nM. With `CCCCCCCCCCCCC(C)OC(=O)N(C)C(=O)Oc1c(C(C)C)cccc1C(C)C` (stereo not drawn) [Example 37, Methyliminodicarbonic, 2,6-bis(1-methylethyl)phenyl 1-methyltridecyl ester], the change in vivo at 30 mg/kg in assay [1] was -8%. In assay [2], the IC50 amounted to 600 nM.

`CCCCCCCCCCCCCCCCCCOC(=O)NC(=O)Oc1c(C(C)C)cccc1C(C)C` [Example 12, Iminodicarbonic acid, 2,6-bis(1-methylethyl)phenyl octadecyl ester]: in assay [1], the change in vivo at 30 mg/kg is -34%. Besides, the IC50 in assay [2] (setting [3]) turned out to be 1200 nM. In the case of `CCCCCCCCOC(=O)NC(=O)Oc1c(C(C)C)cccc1C(C)C` [Example 16, Iminodicarbonic acid, 2,6-bis(1-methylethyl)phenyl octyl ester], in assay [1], the change in vivo at 30 mg/kg is -47%.
